Laboratory results from patent US7084158B2, “Substituted propargylamines” (Bayer Cropscience S.A., priority 2001, dated 2006).

Tests used:
Assay type in all cases: in vivo
Parameters in all cases: key: compounds were considered to be active when, at a concentration of 500 ppm or less, they had an activity on the harmful organisms of 50% or more
Nilaparvata lugens = experiment: Example A: rice leaf dip, leafhopper larvae mortality; conditions: 500 ppm or less; L3 larvae on dipped rice plants; after 6 days
Description: The leaves of 12 rice plants having a stem length of 8 cm were dipped for 5 seconds into an aqueous solution of the formulated compound to be examined. After the solution had run off, the rice plants treated in this manner were placed into a Petri dish and populated with about 20 larvae (L3 stage) of the rice leafhopper species Nilaparvata lugens. The Petri dish was closed and then stored in a climatized chamber (16 hours of light/day, 25° C., 40–60% relative atmospheric humidity). After 6 days of storage, the mortality among the leafhopper larvae was determined. The compounds of the following examples were active: Nos. 29, 32, 42, 43, 51, 70, 84, 1002, 1004, 1005, 1040, 180, 184, 193, 197, 203, 209, 1059, 264, 265, 1066.

Aphis fabae = experiment: Example F: field bean dip, black bean aphid mortality; conditions: 500 ppm or less; plants and aphids dipped; after 3 and 6 days
Description: Germinated field bean seeds (Vicia faba) with radicles were transferred into brown glass bottles filled with tap water and subsequently populated with approximately 100 black bean aphids (Aphis fabae). Plants and aphids were then dipped for 5 seconds into an aqueous solution of the formulated compound to be examined. After the solution had run off, plants and animals were stored in a climatized chamber (16 hours of light/day, 25° C., 40–60% relative atmospheric humidity). After 3 and 6 days of storage, the effect of the compound on the aphids was determined (mortality). The compounds of the following examples were active: 30, 43, 228, 262, 291.

[1] = system: Diabrotica undecimpunctata; experiment: Example C: corn rootworm eggs with maize corn, mortality; conditions: 500 ppm or less; 4-5-day-old eggs; after 6 days
Spodoptera exigua = experiment: Example S: treated L2 larvae and insect diet, sugar beet army worm mortality; conditions: 500 ppm or less, after 6 days
Description: A Petri dish whose bottom was covered with filter paper and which contains about 5 ml of insect diet is prepared. Five L2 larvae of sugar beet army worm (Spodoptera exigua) were counted into a small beaker. 200 μl of an aqueous solution of the formulated compound to be examined were pipetted into the beaker. The treated larvae were then poured into the Petri dish and a further 200 μl of the aqueous solution were distributed over the insect diet. The Petri dish was closed and then stored at 25° C. in a climatized chamber. After 6 days of storage, the mortality among the larvae was determined. The following examples were active: 1036, 175, 184, 1051, 1054, 1055, 234, 1057, 1059, 1060, 1063, 243, 245, 251, 257, 259, 266, 1065, 1067, 290, 291.

Heliothis virescens = experiment: Example B: tobacco budworm eggs on filter paper/insect diet, mortality; conditions: 500 ppm or less; 24-hour-old eggs dipped, diet treated; after 6 days
Meloidogyne incognita = experiment: Example H: root gall nematode larvae immobilization (contact activity); conditions: 500 ppm or less; 2nd stage larvae; 6 days permanent exposure
Description: In a glass vessel, an aqueous solution of the formulated compound to be examined was added to about 3000 freshly hatched active (mobile) larvae (2nd development stage) of the root gall nematode (Meloidogyne incognita) (final volume 20 ml). After 6 days of permanent exposure of the nematode larvae, the percentage of the individual larvae immobilized by the activity of the compound was determined in comparison to the untreated controls (contact activity). The compounds of the following examples were active: 39, 52, 159, 161, 162, 163, 164, 165, 1045, 1046, 1047, 179, 183, 187, 1048, 298, 206, 208, 227, 230, 1061, 237, 238, 245, 250, 255, 256, 260, 268, 269, 274, 275, 288, 290.

Aedes aegypti = experiment: Example AG: microtiter plate, yellow fever mosquito larvicidal activity; conditions: 500 ppm or less, after 3 days
Carpocapsa pomonella = experiment: Example D: dipped apples, codling moth L1 larvae mortality; conditions: 500 ppm or less, after 14 days
Description: Apples were dipped into an aqueous solution of the formulated compound to be examined. The apples were then populated with 10 L1 larvae of the codling moth (Carpocapsa pomonella). After 14 days of storage at about 25° C., the effect of the compound on the larvae was determined (mortality). The compounds of the following examples were active: Nos. 14, 15, 17, 18, 70, 1007, 1008, 1009, 1036, 1038, 197.

Spodoptera littoralis [2] = experiment: Example E: cotton leaves sprayed, Egyptian cotton leafworm L2 larvae mortality; conditions: 500 ppm or less, after 4 days
Description: Leaves of cotton plants were placed into a Petri dish, populated with 10 L2 larvae of the Egyptian cotton leafworm (Spodoptera littoralis) and sprayed with an aqueous solution of the formulated compound to be examined. After 4 days of storage at about 23° C., the effect of the compound on the larvae was determined (mortality). The compounds of the following examples were active: Nos. 18, 70, 1007, 1008, 1009, 1036 und 1038.

Spodoptera littoralis [3] = experiment: Example G: treated L2 larvae and insect diet, Egyptian cotton leafworm mortality; conditions: 500 ppm or less, after 6 days
Description: A Petri dish whose bottom was covered with filter paper and which contained about 5 ml of insect diet is prepared. Five L2 larvae of the Egyptian cotton leafworm (Spodoptera littoralis) were counted into a small beaker. 200 μl of an aqueous solution of the formulated preparation to be examined were pipetted into the beaker. The treated larvae were then poured into the Petri dish, and a further 200 μl of the aqueous solution were distributed over the insect diet. The Petri dish was closed and then stored at about 25° C. in a climatized chamber. After 6 days of storage, the effect of the compound on the larvae was determined (mortality). The compounds of the following examples were active: 29, 70, 60, 159, 1005, 1040, 1042, 1044, 1045, 1046, 1047.

[4] = system: Trialeurodes vaporariorum; experiment: Example AD: bush beans sprayed, white fly larvicidal action; conditions: 500 ppm or less; bush beans sprayed after hatching; after 11 days
Description: For oviposition, bush beans (Phaseolus vulgaris) were populated for 48 hours with adults of the white fly (Trialeurodes vaporariorum). After the larvae had hatched, the plants were sprayed to run-off point with an aqueous solution of the formulated compound to be examined. After 11 days, the larvicidal action was determined. The following examples were active: 1036, 70, 60, 1040, 197.

[5] = system: Diabrotica undecimpunctata; experiment: Example AC: treated soil, southern corn rootworm eggs mortality; conditions: 500 ppm or less, eggs added after 0d, 21d and 42d, after 2 weeks
Description: An aqueous solution of the formulated compound to be examined was mixed with soil. After 0d, 21d and 42d, eggs of the southern corn rootworm (Diabrotica undecimpunctata) were placed together with 2 pre-swollen maize corns into a dish, covered with the treated soil and moisted with 10 ml of water. Soil and eggs were placed in a greenhouse (23° C., 60% relative atmosphere humidity). After 2 weeks of storage, the effect of the compound on the eggs and any larvae hatched therefrom was determined (mortality). The following examples were active: 70, 60, 197, 204.

C[C@@H]1C[C@H](C)CN(CC#Cc2cc(C(F)(F)F)cc(C(F)(F)F)c2)C1 [Example 43]
active: mortality among the leafhopper larvae (Nilaparvata lugens) | effect on the aphids (mortality) (Aphis fabae) | effect on the eggs and hatched larvae (mortality) [1]

CC1CCN(CC#Cc2ccc(-c3ccc(Cl)cc3)s2)CC1 [Example 245]
active: mortality among the larvae (Spodoptera exigua) | effect on the eggs and hatched larvae (mortality) (Heliothis virescens) | percentage of larvae immobilized (contact activity) (Meloidogyne incognita) | larvicidal activity (Aedes aegypti)

CCC1CCCN(CC#Cc2ccc(Cl)c(C(F)(F)F)c2)C1 (stereo not drawn) [Example 18]
active: effect on the eggs and hatched larvae (mortality) (Heliothis virescens) | effect on the larvae (mortality) (Carpocapsa pomonella) | effect on the larvae (mortality) (Spodoptera littoralis [2]) | effect on the eggs and hatched larvae (mortality) [1]

CC1CCN(CC#Cc2cc([N+](=O)[O-])cc(C(F)(F)F)c2)CC1.Cl [Example 1038]
active: effect on the eggs and hatched larvae (mortality) (Heliothis virescens) | effect on the larvae (mortality) (Carpocapsa pomonella) | effect on the larvae (mortality) (Spodoptera littoralis [2]) | effect on the eggs and hatched larvae (mortality) [1]

CC1CCN(CC#Cc2ccc(C(F)(F)F)c(Cl)c2)CC1.O=C(O)/C=C/C(=O)O [Example 1008]
active: effect on the larvae (mortality) (Carpocapsa pomonella) | effect on the larvae (mortality) (Spodoptera littoralis [2])

CC1CCN(CC#Cc2cc(C(F)(F)F)cc(Cl)n2)CC1 [Example 234]
active: mortality among the larvae (Spodoptera exigua) | effect on the eggs and hatched larvae (mortality) (Heliothis virescens) | larvicidal activity (Aedes aegypti) | effect on the eggs and hatched larvae (mortality) [1]

CC1CCN(CC#Cc2ccc(C(F)(F)F)c(Cl)c2)CC1.CCCCCCCCC(=O)O [Example 1040]
active: mortality among the leafhopper larvae (Nilaparvata lugens) | effect on the larvae (mortality) (Spodoptera littoralis [3]) | larvicidal action [4] | effect on the eggs and hatched larvae (mortality) (Heliothis virescens) | effect on the eggs and hatched larvae (mortality) [1]

CC1CCN(CC#Cc2ccc(-c3ccc(F)cc3)c(F)c2)CC1 [Example 228]
active: effect on the aphids (mortality) (Aphis fabae) | effect on the eggs and hatched larvae (mortality) [1]

CC1CCN(CC#Cc2cc(C(F)(F)F)cc(C(F)(F)F)n2)CC1.CCS(=O)(=O)O [Example 1060]
active: mortality among the larvae (Spodoptera exigua) | effect on the eggs and hatched larvae (mortality) (Heliothis virescens) | larvicidal activity (Aedes aegypti) | effect on the eggs and hatched larvae (mortality) [1]

CC1CCN(CC#Cc2cc(C(F)(F)F)ccc2Cl)CC1 [Example 30]
active: effect on the eggs and hatched larvae (mortality) (Heliothis virescens) | effect on the aphids (mortality) (Aphis fabae)

CC1CCN(CC#Cc2ccc(C#N)c(C(F)(F)F)c2)CC1 [Example 290]
active: mortality among the larvae (Spodoptera exigua) | effect on the eggs and hatched larvae (mortality) (Heliothis virescens) | percentage of larvae immobilized (contact activity) (Meloidogyne incognita) | larvicidal activity (Aedes aegypti) | effect on the eggs and hatched larvae (mortality) [1]

FC(F)(F)c1cc(C#CCN2CCC(C(F)(F)F)CC2)nc(C(F)(F)F)c1 [Example 204]
active: effect on the eggs and hatched larvae (mortality) [5] | effect on the eggs and hatched larvae (mortality) (Heliothis virescens) | effect on the eggs and hatched larvae (mortality) [1]

CC1CCN(CC#Cc2ccc(-c3ccccc3Cl)s2)CC1 [Example 243]
active: mortality among the larvae (Spodoptera exigua)

Cc1cc(C)cc(-c2ccc(C#CCN3CCC(C)CC3)cc2)c1 [Example 175]
active: mortality among the larvae (Spodoptera exigua) | effect on the eggs and hatched larvae (mortality) (Heliothis virescens)
